Experimental data taken from patent US20260116884A1, “PROTAC CHIMERIC COMPOUND, PREPARATION METHOD THEREFOR AND USE THEREOF” (HANGZHOU ZHONGMEIHUADONG PHARMACEUTICAL CO., LTD., priority 2022, published 2026).

target: T1, human HPK1 (Homo sapiens, UniProt Q92918); assay: Assay of in vitro HPK1 enzymatic activity (ADP-Glo); assay type: biochemical; settings: 7 nM kinase, 20 uM ATP
Protocol: Compounds were evaluated for their ability to inhibit human HPK1 by IC50 determination using the ADP-Glo method to measure the kinase activity.
Buffer conditions of the enzyme: 50 mM Hepes (pH 7.5), 10 mM MgCl2, 1 mM EGTA, 0.01% Brij35, 2 mM DTT.
Preparation of the Kinase and substrate mixture: the working concentration of the kinase in the HPK1 reaction solution was 7 nM and the working concentration of ATP was 20 uM.
The compound was diluted with DMSO in a dilution plate, with a maximum starting concentration of 1 uM and 10 concentration gradient points (4-fold dilution).
Each of the above 10 concentration gradient points of the compound was then diluted 50-fold into the kinase reaction buffer and shaken on a shaker for 20 min. The kinase was prepared in an enzyme reaction buffer and 2 μl of the HPK1 kinase was added per well of the reaction plate at a HPK1 kinase concentration of 7 nM.
1 μl of diluted compound in the buffer was added per well, and the plate was sealed with a plate sealing film, centrifuged at 1000 g for 30 seconds, and left at room temperature for 10 minutes. An ATP solution was prepared with an enzyme reaction buffer and 2 μl of the ATP solution was added to the reaction plate (the working concentration of ATP was 20 uM). The plate was sealed with a plate sealing film, centrifuged at 1000 g for 30 seconds, and reacted at room temperature for 60 minutes. 4 μL of ADP-Glu was transferred to a 384 reaction plate, centrifuged at 1000 rpm/min for 1 min, and incubated at 25° C. for 40 min. 8 μL of the Detection solution was transferred to a 384 reaction plate, centrifuged at 1000 rpm/min for 1 min, and incubated at 25° C. for 40 min. The RLU (Relative luminescence unit) signal was read using a BMG microplate reader, and the signal intensity was used to characterize the activity level of the kinase.
The kinase activity data was expressed by comparing the kinase activity of the test compound and the blank group (containing only DMSO), and the IC50 value was obtained by curve fitting using the Prism software (GraphPad7.0).

T1 sequence (Q92918 whole entry): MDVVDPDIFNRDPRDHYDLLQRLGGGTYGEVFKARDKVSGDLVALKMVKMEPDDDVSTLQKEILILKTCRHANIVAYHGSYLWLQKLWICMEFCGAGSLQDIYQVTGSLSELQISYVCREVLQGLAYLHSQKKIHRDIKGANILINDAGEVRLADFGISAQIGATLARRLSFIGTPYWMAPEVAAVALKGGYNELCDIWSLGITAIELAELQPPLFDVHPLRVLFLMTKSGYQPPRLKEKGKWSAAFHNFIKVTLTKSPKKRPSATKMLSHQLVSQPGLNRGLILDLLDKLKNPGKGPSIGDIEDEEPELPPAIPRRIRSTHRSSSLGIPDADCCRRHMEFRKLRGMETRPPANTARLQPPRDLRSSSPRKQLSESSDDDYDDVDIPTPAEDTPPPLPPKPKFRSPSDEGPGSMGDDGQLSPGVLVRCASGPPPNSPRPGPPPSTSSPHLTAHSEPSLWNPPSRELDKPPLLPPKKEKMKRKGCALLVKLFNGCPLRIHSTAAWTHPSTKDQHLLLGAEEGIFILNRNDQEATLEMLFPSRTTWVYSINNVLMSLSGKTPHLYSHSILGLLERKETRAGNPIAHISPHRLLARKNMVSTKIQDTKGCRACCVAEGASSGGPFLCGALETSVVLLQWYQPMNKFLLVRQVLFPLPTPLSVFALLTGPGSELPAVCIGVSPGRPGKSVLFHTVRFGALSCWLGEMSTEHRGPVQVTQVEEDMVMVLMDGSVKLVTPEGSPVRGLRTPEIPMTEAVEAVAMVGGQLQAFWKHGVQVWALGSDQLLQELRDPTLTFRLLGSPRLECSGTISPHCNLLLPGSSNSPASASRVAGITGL

| SMILES | IC50 |
| --- | --- |
| CCN1CCC(n2cc(-c3c[nH]c4ncc(-c5ccc(N6CCN(C(=O)CCOCCNc7cccc8c7C(=O)N(C7CCC(=O)NC7=O)C8=O)CC6)nc5)nc34)cn2)CC1 (stereo not shown) [Compound C025] | 8.8 nM |
| CCN1CCC(n2cc(-c3c[nH]c4ncc(-c5cnc(NCCNC(=O)c6cccc(N7CCC(=O)NC7=O)c6)c(C)c5)nc34)cn2)CC1 [Compound C009] | 8.8 nM |
| CCN1CCC(n2cc(-c3c[nH]c4ncc(-c5cnc(OC(C)CNC(=O)c6ccc(Cl)c(N7CCC(=O)NC7=O)c6)c(C)c5)nc34)cn2)CC1 (stereo not shown) [Compound C043] | 27.8 nM |
| CCN1CCC(n2cc(-c3c[nH]c4ncc(-c5ccc(OCCCCNC(=O)c6ccc(Cl)c(N7CCC(=O)NC7=O)c6)nc5)nc34)cn2)CC1 [Compound C038] | 21.7 nM |
| CCN1CCC(n2cc(-c3c[nH]c4ncc(-c5cnc(OCCNC(=O)c6cccc(N7CCC(=O)NC7=O)c6)c(C)c5)nc34)cn2)CC1 [Compound C016] | 15 nM |
| CCN1CCC(n2cc(-c3c[nH]c4ncc(-c5cnc(OC6CN(C(=O)c7cccc(N8CCC(=O)NC8=O)c7)C6)c(C)c5)nc34)cn2)CC1 [Compound C015] | 6.2 nM |
| CCN1CCC(n2cc(-c3c[nH]c4ncc(-c5ccc(OC(C)CNC(=O)c6ccc(Cl)c(N7CCC(=O)NC7=O)c6)nc5)nc34)cn2)CC1 (stereo not shown) [Compound C044] | 50.4 nM |
| CCN1CCC(n2cc(-c3c[nH]c4ncc(-c5ccc(OCC(C)(C)CNC(=O)c6ccc(Cl)c(N7CCC(=O)NC7=O)c6)nc5)nc34)cn2)CC1 [Compound C041] | 14.6 nM |

Results, then the compound that gave them:

| IC50 | SMILES |
| --- | --- |
| 1.6 nM | CCN1CCC(n2cc(-c3c[nH]c4ncc(-c5ccc(N6CCN(C7CCC(NC(=O)c8ccc(Cl)c(N9CCC(=O)NC9=O)c8)CC7)CC6)cc5)nc34)cn2)CC1 (stereo not shown) [Compound C029] |
| 0.9 nM | CCN1CCC(n2cc(-c3c[nH]c4ncc(-c5ccc(N6CCN(C7CCC(NC(=O)c8ccc(Cl)c(N9CCC(=O)NC9=O)c8)CC7)CC6)nc5)nc34)cn2)CC1 (stereo not shown) [Compound C027] |
| 5.2 nM | CCN1CCC(n2cc(-c3c[nH]c4ncc(-c5cnc(OCC(=O)N6CCC(c7ccc(NC8CCC(=O)NC8=O)cc7)CC6)c(C)c5)nc34)cn2)CC1 (stereo not shown) [Compound C007] |
| 3.5 nM | CCN1CCC(n2cc(-c3c[nH]c4ncc(-c5cnc(OCC(=O)Nc6ccc(NC7CCC(=O)NC7=O)cc6)c(F)c5)nc34)cn2)CC1 (stereo not shown) [Compound C008] |
| 1.9 nM | CCN1CCC(n2cc(-c3c[nH]c4ncc(-c5cnc(N6CCN(CC7CN(c8cccc9c8C(=O)N(C8CCC(=O)NC8=O)C9=O)C7)CC6)c(C)c5)nc34)cn2)CC1 (stereo not shown) [Compound C012] |
| 1.5 nM | CCN1CCC(n2cc(-c3c[nH]c4ncc(-c5cnc(OC6CCN(C(=O)c7cccc(N8CCC(=O)NC8=O)c7)CC6)c(C)c5)nc34)cn2)CC1 [Compound C014] |
| 2 nM | CCN1CCC(n2cc(-c3c[nH]c4ncc(-c5cnc(OC6CCN(C(=O)c7cccc(N8CCC(=O)NC8=O)c7)CC6)c(C)c5)nc34)cn2)CC1 [Compound C019] |
| 2.1 nM | CCN1CCC(n2cc(-c3c[nH]c4ncc(-c5ccc(OCCCNC(=O)c6cccc(N7CCC(=O)NC7=O)c6)c(C)c5)nc34)cn2)CC1 [Compound C042] |
| 2.4 nM | CCN1CCC(n2cc(-c3c[nH]c4ncc(-c5ccc(OCCNC6CCC(NC(=O)c7ccc(Cl)c(N8CCC(=O)NC8=O)c7)CC6)nc5)nc34)cn2)CC1 (stereo not shown) [Compound C028] |
| 1.2 nM | CCN1CCC(n2cc(-c3c[nH]c4ncc(-c5ccc(OCCNC(=O)c6ccc(Cl)c(N7CCC(=O)NC7=O)c6)c(C)c5)nc34)cn2)CC1 [Compound C034] |
| 0.2 nM | CCN1CCC(n2cc(-c3c[nH]c4ncc(-c5ccc(N6CCN(C7CC8(CCN(C(=O)c9ccc(Cl)c(N%10CCC(=O)NC%10=O)c9)CC8)C7)CC6)cc5)nc34)cn2)CC1 [Compound C030] |
| 1.6 nM | CCN1CCC(n2cc(-c3c[nH]c4ncc(-c5ccc(N6CCN(C(=O)CCCCCNc7cccc8c7C(=O)N(C7CCC(=O)NC7=O)C8=O)CC6)nc5)nc34)cn2)CC1 (stereo not shown) [Compound C026] |
| 0.7 nM | CCN1CCC(n2cc(-c3c[nH]c4ncc(-c5cnc(N6CCN(CC7CN(C(=O)c8cccc(N9CCC(=O)NC9=O)c8)C7)CC6)c(C)c5)nc34)cn2)CC1 [Compound C011] |
| 2.6 nM | CCN1CCC(n2cc(-c3c[nH]c4ncc(-c5cnc(N6CCN(CC7CCN(C(=O)c8cccc(N9CCC(=O)NC9=O)c8)CC7)CC6)c(C)c5)nc34)cn2)CC1 [Compound C002] |
| 5.1 nM | CCN1CCC(n2cc(-c3c[nH]c4ncc(-c5cnc(OCCN(C)C(=O)c6ccc(Cl)c(N7CCC(=O)NC7=O)c6)c(C)c5)nc34)cn2)CC1 [Compound C045] |
| 1.4 nM | CCN1CCC(n2cc(-c3c[nH]c4ncc(-c5ccc(OCCCNC(=O)c6ccc(Cl)c(N7CCC(=O)NC7=O)c6)c(C)c5)nc34)cn2)CC1 [Compound C039] |

tested on: IL2 activation in human PBMC; assay: IL2 activity assay (ELISA) in human PBMC; assay type: cell-based; settings: CD3/CD28 antibody, 24 h
Protocol: The compound was diluted with DMSO in a dilution plate, with a maximum starting concentration of 10 μM, 8 concentration gradient points (3-fold dilution), and then added to the 96-well plate along with the addition of 5 µg/ml CD28 antibody. Incubation was performed for 24 h. • (3) The ELISA plate was washed twice with PBS, and an ELISA dilution was added at 100 µl/well. Then 100 μl of the standard and the incubated samples obtained in step 2 were added separately, and incubated for 2 h at room temperature. • (4) Each well was washed 3 times by adding with 400 μl washing buffer per well, and was finally blotted to dryness with a clean absorbent paper. • (5) 200 μl of the IL2 conjugate was added per well, covered with a fresh tape, and incubated for 2 h at room temperature. Step (4) was repeated. • (6) 200 μl of the substrate was added per well under the protection from light. The plate was incubated at room temperature for 20 min. • (7) 50 μL of a stop solution was added per well. The color of the wells should be from blue to yellow. Signals at […] were read by a microplate reader, and the signal intensity was used to characterize the activity level of IL2. EC50 values were obtained by fitting using the Prism software.

| SMILES | EC50 |
| --- | --- |
| CCN1CCC(n2cc(-c3c[nH]c4ncc(-c5ccc(N6CCC(C)(CN7CCN(C(=O)c8ccc(Cl)c(N9CCC(=O)NC9=O)c8)CC7)CC6)cc5)nc34)cn2)CC1 [Compound C139] | 104 nM |
| CCN1CCC(n2cc(-c3c[nH]c4ncc(-c5ccc(N6CCC(OC7CCN(C(=O)c8ccc(Cl)c(N9CCC(=O)NC9=O)c8)CC7)CC6)c(C)c5)nc34)cn2)CC1 [Compound C132] | 34.6 nM |
| CCN1CCC(n2cc(-c3c[nH]c4ncc(-c5ccc(N6CCC(CC7CCCN(C(=O)c8ccc(Cl)c(N9CCC(=O)NC9=O)c8)CC7)CC6)cc5)nc34)cn2)CC1 (stereo not shown) [Compound C122] | 59.9 nM |
| CCN1CCC(n2cc(-c3c[nH]c4ncc(-c5ccc(N6CCC(OC7CCN(C(=O)c8ccc(Cl)c(N9CCC(=O)NC9=O)c8)CC7)CC6)c(F)c5)nc34)cn2)CC1 [Compound C134] | 41.7 nM |
| CCN1CCC(n2cc(-c3c[nH]c4ncc(-c5ccc(N6CCC(OC7CCN(C(=O)c8ccc(Cl)c(N9CCC(=O)NC9=O)c8)CC7)CC6)cc5)nc34)cn2)CC1 [Compound C131] | 41.7 nM |
| CCN1CCC(n2cc(-c3c[nH]c4ncc(-c5ccc(N6CCC(CC7CCN(C(=O)c8ccc(Cl)c(N9CCC(=O)NC9=O)c8)CC7)CC6)c(F)c5)nc34)cn2)CC1 [Compound C135] | 44.1 nM |

target: T1, human HPK1; assay: HPK1 protein degradation assay (WB) in RAMOS cell line; assay type: cell-based; set-up: The RAMOS cell line was selected as the degradation cell line; endogenous in cells; host or cells: RAMOS; settings: RAMOS cells, 16 h, Western blot
Protocol: Degradation of HPK1 proteins and DC50/Dmax were determined by the WB method in order to evaluate the in vitro degradative ability of the compound.
The RAMOS cell line was selected as the degradation cell line. Incubation Conditions: RMPI 1640 culture medium supplemented with 10% FBS, 37° C., 5% CO2.
• (1) Plating cells: in a 6 cm dish with 4 ml of the culture medium, cells plated at 2×10^6 cells/dish. • (2) Drug addition: the compound (stock solution concentration: 10 mM) was diluted with DMSO in a dilution plate, with a maximum starting concentration of 10 μM and 7 concentration gradient points (3-fold dilution). 4 μl of each diluted solution was taken, added to a dish, and incubated for 16 h. • (3) Cells were harvested, added with a lysis buffer, and centrifuged at 12000 rpm/min for 20 min. The supernatant was collected. After quantification using a BCA quantification kit, 5× loading buffer was added to denature for 10 min. • (4) 10 μg of denatured protein was added to the SDS-PAGE gel. After electrophoresis and membrane transfer, the plate was blocked with 5% BSA for 1 h, incubate with the primary antibody at 4° C. overnight. After washing off the primary antibody, the secondary antibody was added, incubated at room temperature for 1 h, and washed off.
Imaging: the membranes were scanned with a two-color fluorescence imaging system.

| DC50 | Dmax | SMILES |
| --- | --- | --- |
| 52.4 nM | 80.9% | CCN1CCC(n2cc(-c3c[nH]c4ncc(-c5ccc(N6CCC(C)(CN7CCN(C(=O)c8ccc(Cl)c(N9CCC(=O)NC9=O)c8)CC7)CC6)cc5)nc34)cn2)CC1 [Compound C139] |
| 29.3 nM | 73% | CCN1CCC(n2cc(-c3c[nH]c4ncc(-c5ccc(N6CCC(OC7CCN(C(=O)c8ccc(Cl)c(N9CCC(=O)NC9=O)c8)CC7)CC6)c(C)c5)nc34)cn2)CC1 [Compound C132] |
| 7.22 nM | 78% | CCN1CCC(n2cc(-c3c[nH]c4ncc(-c5ccc(N6CCC(OC7CCN(C(=O)c8ccc(Cl)c(N9CCC(=O)NC9=O)c8)CC7)CC6)c(F)c5)nc34)cn2)CC1 [Compound C134] |
| 386 nM | 52% | CCN1CCC(n2cc(-c3c[nH]c4ncc(-c5ccc(N6CCC(OC7CCN(C(=O)c8ccc(Cl)c(N9CCC(=O)NC9=O)c8)CC7)CC6)cc5)nc34)cn2)CC1 [Compound C131] |
| 176 nM | 63% | CCN1CCC(n2cc(-c3c[nH]c4ncc(-c5ccc(N6CCC(CC7CCN(C(=O)c8ccc(Cl)c(N9CCC(=O)NC9=O)c8)CC7)CC6)c(F)c5)nc34)cn2)CC1 [Compound C135] |
